Holding throughout (assay): biochemical
Holding throughout (parameters): endogenous in cells; host or cells: K562 cell extract; species or system K562 (extract); replicate k of n = 2 (each experiment ID is one independent experiment; two experiment IDs per compound)
Holding throughout (conditions): read-out: KDapp

In assay [1] the target is CDK2 (Homo sapiens, UniProt P24941).
The target of assay [2] is T1, NEK9 (Homo sapiens, UniProt Q8TD19).
T1 sequence (Q8TD19 1-979): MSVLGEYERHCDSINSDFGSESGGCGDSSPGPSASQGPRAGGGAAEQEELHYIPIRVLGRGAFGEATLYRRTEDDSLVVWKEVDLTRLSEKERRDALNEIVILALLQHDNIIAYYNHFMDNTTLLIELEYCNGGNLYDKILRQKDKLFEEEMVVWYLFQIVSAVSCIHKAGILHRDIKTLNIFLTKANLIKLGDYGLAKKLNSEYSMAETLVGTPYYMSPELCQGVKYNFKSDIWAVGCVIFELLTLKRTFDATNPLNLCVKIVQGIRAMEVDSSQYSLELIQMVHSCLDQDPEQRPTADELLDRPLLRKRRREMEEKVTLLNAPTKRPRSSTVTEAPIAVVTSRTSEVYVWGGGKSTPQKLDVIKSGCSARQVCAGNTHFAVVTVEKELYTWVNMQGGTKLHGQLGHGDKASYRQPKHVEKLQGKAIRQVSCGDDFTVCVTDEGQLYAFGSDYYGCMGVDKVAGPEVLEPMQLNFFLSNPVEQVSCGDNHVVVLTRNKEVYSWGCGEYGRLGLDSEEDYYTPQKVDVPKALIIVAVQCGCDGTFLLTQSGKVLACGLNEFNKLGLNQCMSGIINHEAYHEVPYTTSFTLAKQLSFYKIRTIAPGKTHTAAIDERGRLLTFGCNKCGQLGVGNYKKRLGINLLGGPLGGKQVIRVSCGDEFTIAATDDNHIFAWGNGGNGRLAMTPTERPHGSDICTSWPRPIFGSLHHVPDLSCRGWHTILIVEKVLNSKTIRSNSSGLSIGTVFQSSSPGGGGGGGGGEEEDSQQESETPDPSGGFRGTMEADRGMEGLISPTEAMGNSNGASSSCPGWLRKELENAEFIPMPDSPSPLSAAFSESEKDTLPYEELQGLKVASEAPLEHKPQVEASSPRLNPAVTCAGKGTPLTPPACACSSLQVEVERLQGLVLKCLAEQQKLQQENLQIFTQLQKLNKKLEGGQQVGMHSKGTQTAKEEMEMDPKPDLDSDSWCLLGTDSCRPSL

The target in assay [3] is OXSR1 (Homo sapiens, UniProt O95747).
Assay [4] concerns the target RPS6KA5 (Homo sapiens, UniProt O75582).
The target in assay [5] is T2, ULK3 (Homo sapiens, UniProt Q6PHR2).
T2 sequence (Q6PHR2 1-472): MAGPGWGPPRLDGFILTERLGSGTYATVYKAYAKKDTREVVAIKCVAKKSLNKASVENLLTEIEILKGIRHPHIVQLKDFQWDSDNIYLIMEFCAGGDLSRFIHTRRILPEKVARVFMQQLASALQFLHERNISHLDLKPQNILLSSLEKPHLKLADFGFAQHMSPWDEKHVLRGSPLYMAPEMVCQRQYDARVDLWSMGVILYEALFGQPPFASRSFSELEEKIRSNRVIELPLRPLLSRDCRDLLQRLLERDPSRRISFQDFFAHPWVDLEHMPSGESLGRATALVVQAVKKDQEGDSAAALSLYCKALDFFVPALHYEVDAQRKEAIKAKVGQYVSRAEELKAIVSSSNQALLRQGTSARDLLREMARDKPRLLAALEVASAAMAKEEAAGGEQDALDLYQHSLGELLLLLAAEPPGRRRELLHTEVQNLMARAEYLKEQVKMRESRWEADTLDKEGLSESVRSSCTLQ

Assay [6] concerns the target T3, MARK4 (Homo sapiens, UniProt Q96L34).
T3 sequence (Q96L34 1-752): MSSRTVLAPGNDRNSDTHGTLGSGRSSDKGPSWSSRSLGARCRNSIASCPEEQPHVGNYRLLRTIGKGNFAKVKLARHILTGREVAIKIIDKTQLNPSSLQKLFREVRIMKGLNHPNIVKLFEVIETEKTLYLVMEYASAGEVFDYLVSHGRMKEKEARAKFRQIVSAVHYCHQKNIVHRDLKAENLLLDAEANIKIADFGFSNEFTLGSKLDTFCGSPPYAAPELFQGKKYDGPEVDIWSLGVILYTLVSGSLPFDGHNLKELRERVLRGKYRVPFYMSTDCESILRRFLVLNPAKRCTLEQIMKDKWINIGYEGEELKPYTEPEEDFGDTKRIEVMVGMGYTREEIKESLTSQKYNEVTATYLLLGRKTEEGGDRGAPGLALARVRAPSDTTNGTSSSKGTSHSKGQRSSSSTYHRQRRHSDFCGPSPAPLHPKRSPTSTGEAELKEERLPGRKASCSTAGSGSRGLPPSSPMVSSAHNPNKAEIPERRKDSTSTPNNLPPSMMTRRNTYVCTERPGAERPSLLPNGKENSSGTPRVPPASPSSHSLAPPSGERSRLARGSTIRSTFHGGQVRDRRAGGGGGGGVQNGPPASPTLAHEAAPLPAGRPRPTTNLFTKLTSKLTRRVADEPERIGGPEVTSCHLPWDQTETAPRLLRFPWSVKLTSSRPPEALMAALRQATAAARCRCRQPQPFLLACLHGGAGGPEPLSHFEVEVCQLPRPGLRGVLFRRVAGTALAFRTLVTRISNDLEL

Each structure is given as a SMILES string. Where “and” joins values, the source holds several entries; their conditions need not be identical. Equal values may be shown once.

OXSR1, sequence (O95747 whole entry): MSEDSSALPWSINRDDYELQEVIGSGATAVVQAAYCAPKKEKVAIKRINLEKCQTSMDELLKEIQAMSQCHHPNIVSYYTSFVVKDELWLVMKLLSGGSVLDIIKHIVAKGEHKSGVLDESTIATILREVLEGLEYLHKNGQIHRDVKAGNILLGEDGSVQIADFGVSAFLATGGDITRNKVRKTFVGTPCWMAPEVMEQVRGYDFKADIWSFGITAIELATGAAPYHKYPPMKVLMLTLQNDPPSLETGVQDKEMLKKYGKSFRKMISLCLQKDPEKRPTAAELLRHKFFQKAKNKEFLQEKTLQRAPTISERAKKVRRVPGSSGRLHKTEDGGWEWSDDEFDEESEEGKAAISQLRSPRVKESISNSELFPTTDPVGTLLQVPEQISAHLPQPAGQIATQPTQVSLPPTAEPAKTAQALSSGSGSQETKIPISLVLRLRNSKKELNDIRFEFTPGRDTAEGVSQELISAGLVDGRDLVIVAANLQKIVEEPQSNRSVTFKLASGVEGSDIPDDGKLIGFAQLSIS
RPS6KA5, sequence (O75582 whole entry): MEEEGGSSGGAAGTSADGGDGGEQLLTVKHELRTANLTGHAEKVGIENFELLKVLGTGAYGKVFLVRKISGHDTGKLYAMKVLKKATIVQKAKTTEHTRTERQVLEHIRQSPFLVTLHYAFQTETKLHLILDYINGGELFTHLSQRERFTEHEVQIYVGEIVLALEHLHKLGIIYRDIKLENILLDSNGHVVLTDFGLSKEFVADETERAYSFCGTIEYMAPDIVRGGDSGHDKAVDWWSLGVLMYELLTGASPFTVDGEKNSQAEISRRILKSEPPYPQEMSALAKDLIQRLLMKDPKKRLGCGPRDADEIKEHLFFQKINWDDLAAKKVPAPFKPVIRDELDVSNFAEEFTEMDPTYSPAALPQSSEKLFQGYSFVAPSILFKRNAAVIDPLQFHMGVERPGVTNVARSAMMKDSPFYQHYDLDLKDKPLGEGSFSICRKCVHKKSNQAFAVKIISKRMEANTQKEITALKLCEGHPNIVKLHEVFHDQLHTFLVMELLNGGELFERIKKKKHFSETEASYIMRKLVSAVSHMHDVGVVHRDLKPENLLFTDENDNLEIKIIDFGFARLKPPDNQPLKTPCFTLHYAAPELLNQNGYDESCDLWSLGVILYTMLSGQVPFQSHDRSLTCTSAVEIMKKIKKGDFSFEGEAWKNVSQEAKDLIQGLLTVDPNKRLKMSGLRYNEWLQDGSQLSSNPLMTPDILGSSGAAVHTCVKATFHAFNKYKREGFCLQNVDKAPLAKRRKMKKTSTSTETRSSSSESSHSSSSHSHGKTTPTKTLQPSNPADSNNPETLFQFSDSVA

For the compound `CN1CCN(c2ccc(Nc3ncc(C#N)c(Nc4ccccc4C(N)=O)n3)cc2)CC1.Cl` [TCMDC-134116], the Kd is 135 nM and 131 nM in assay [1]; 396 nM and 299 nM in assay [2]; 73 nM and 117 nM in assay [3]; 393 nM and 590 nM in assay [4]; 16.4 nM and 25.9 nM in assay [5].
In the case of `CN(C)CC(O)COc1ccc(Nc2ncc([N+](=O)[O-])c(Nc3ccccc3O)n2)cc1.O=C(O)C(F)(F)F` (stereo not drawn) [TCMDC-141399], in assay [6], the Kd is 6160 nM and 3900 nM.

Values taken from PMC4774911, “Biochemical Screening of Five Protein Kinases from Plasmodium falciparum against 14,000 Cell-Active Compounds” (PLoS ONE, 2016).
